Converted amounts (≈) assume the structure as drawn. Like-named read-outs stand apart in the source and are kept apart here.
Assays:
[1] = test system: Salmonella typhimurium strains TA 1535 and TA 1538; settings: With S9; 5 μg/plate
Method: The Ames test was conducted using histidine auxotroph Salmonella typhimurium strains TA 1535 and TA 1538. To test mutagenic potential of the synthetic retinoids themselves and their metabolic products, the assay was conducted both with and without rat liver S9 fraction (Moltox, Boone, N.C., USA). Briefly, 100 μl of bacterial overnight cultures was added into 500 μl of phosphate buffer containing a range of amounts of the retinoids dissolved in 10 μl DMSO and with or without 4% S9. After incubation at 37° C. for 1 h, the samples were added into 2 ml of soft agar including 0.5 mM of histidine/biotin, mixed, and poured onto minimal glucose agar plates. The plates were incubated at 37° C. for 48 h, and the revertant colonies were counted. 10 μl DMSO was used as a negative control. […] 5 μg/plate 2-aminoanthracene was used as a positive control for both strains in the metabolic activation system. The test was performed in triplicate.

S. aureus = assay: Minimal inhibitory concentration (MIC), broth microdilution; format: cell-based, Staphylococcus aureus
Excerpt: (§1) Bacterial strains and growth conditions and persister isolation: methicillin-resistant S. aureus (MRSA) strain MW2 BAA-1707, vancomycin-resistant S. aureus strain VRS 1, 11 clinical S. aureus isolates, 8 clinical Enterococcus faecium isolates, Klebsiella pneumoniae WGLW2 (BEI Resources, Manassas, Va., USA), Acinetobacter baumannii ATCC 17978, Pseudomonas aeruginosa PA14, and Enterobacter aerogenes ATCC 13048 were used to test antimicrobial activity (See Table 1a). S. aureus and E. faecium strains were grown in tryptic soy broth (TSB) (BD, Franklin Lakes, N.J., USA) or brain-heart infusion (BHI) broth (BD, Franklin Lakes, N.J., USA), respectively at 37° C. at 225 rpm. K. pneumoniae, A. baumannii, P. aeruginosa, and E. aerogenes were grown in Luria Bertani (LB) broth (BD, Franklin Lakes, N.J., USA).
(§2) To test the bacterial MICs for compounds described herein, the total volume in each well was 100 μl of test compounds and bacterial cells in MH broth. […] The bacterial concentration was adjusted to an initial OD600 of 0.03. After incubation at 35° C. for 18 hrs, the absorbance was measured at 595 nm in accordance with CLSI document M07-A8. The MICs of antibiotics were determined by the standard microdilution method recommended by the Clinical and Laboratory Standards Institute.

C. neoformans = assay: MIC against fungal cultures; format: cell-based; settings: Cryptococcus neoformans, read-out: Drug MIC
Method: (§3) The cells were harvested by centrifugation at 4000 RPM for 5 minutes and washed with PBS; the cell pellets were resuspended in RPMI 1640 medium. The cell count was calculated with a hemocytometer and adjusted to be between 5.0×10^4 to 2.5×10^6 cells/ml. A tested compound was prepared and added to RPMI 1640 medium at 2× the final concentration. […] For C. albicans, OD595 was read after incubating the plate at 35° C. for 24 hrs. For KN99α, OD595 was read after incubating the plate at 35° C. for 70 hrs in accordance with CLSI document M27-A2.

Candida tropicalis = assay: MIC against fungal cultures; format: cell-based
Method: as §3

Candida glabrata = assay: MIC against fungal cultures; format: cell-based; settings: Nakaseomyces glabratus, read-out: Drug MIC
E. faecium = assay: MIC, broth microdilution; format: cell-based, Enterococcus faecium; settings: Enterococcus faecium, read-out: Drug MIC
Excerpt: as §1, §2

[2] = C. neoformans clinical isolate 41291
[3] = C. neoformans clinical isolate 41292
[4] = C. neoformans clinical isolate 41294
[5] = C. neoformans clinical isolate 41295
[6] = C. neoformans clinical isolate 41296
[7] = C. neoformans clinical isolate 41297
[8] = C. neoformans clinical isolate 41298
[9] = C. neoformans clinical isolate 41299
[10] = C. neoformans clinical isolate 41300
[11] = C. neoformans clinical isolate BF113
[12] = C. neoformans clinical isolate BF114
[13] = ATCC13803, Candida tropicalis ATCC 13803 (Reference), read-out: Drug MIC
[14] = Candida tropicalis clinical isolate 11, read-out: Drug MIC
[15] = Candida tropicalis clinical isolate 85-S, read-out: Drug MIC
[16] = Candida tropicalis clinical isolate 172-S, read-out: Drug MIC
[17] = ATCC90030, Candida glabrata ATCC 90030 (Reference)
[18] = Candida glabrata clinical isolate 6891
[19] = Candida glabrata clinical isolate 6922
[20] = Candida glabrata clinical isolate 6927
[21] = Candida glabrata clinical isolate 6930
[22] = Candida glabrata clinical isolate 6931
[23] = Candida glabrata clinical isolate 6932
[24] = Candida glabrata clinical isolate 6943
[25] = Candida glabrata clinical isolate 7110
[26] = Candida glabrata clinical isolate 7117
[27] = Candida glabrata clinical isolate 7221
[28] = Candida glabrata clinical isolate 7255
[29] = Candida glabrata clinical isolate 7815
[30] = Candida glabrata clinical isolate 7869
[31] = Candida glabrata clinical isolate 7871
[32] = Candida glabrata clinical isolate 8066

Nc1ccc2cc3ccccc3cc2c1 [2AA, 2-Aminoanthracene] was tested, and the “Number of revertants (T1535)” value [1] was 263 ± 15 and the “Number of revertants (T1538)” value [1] was 2568 ± 108.

“Defensin 1: a CAMP (cationic antimicrobial peptide) secreted by the host immune system” showed an MIC (S. aureus; S. aureus MW2 mutant SP1-8 (graS)) of 8 µg/mL, an MIC (S. aureus; S. aureus MW2 mutant SP1-48 (graS, manA)) of 8 µg/mL and an MIC (S. aureus; S. aureus MW2 mutant SP1-74 (graS, manA, MW2474)) of 8 µg/mL. The MIC (S. aureus; S. aureus MW2 mutant SP1-100 (graS, manA, MW2474)) was 8 µg/mL, the MIC (S. aureus; S. aureus MW2 mutant SP2-13 (yjbH)) was 16 µg/mL and the MIC (S. aureus; S. aureus MW2 mutant SP2-52 (yjbH, dltB)) was 8 µg/mL. The MIC (S. aureus; S. aureus MW2 mutant SP2-59 (yjbH, dltB, manA)) was 8 µg/mL, the MIC (S. aureus; S. aureus MW2 mutant SP2-65 (yjbH, dltB, manA, MW1685)) was 8 µg/mL and the MIC (S. aureus; S. aureus MW2 mutant SP2-100 (yjbH dltB, manA, MW1685)) was 8 µg/mL. For the same compound, the MIC (S. aureus; S. aureus MW2 serial passage culture SP1-1 (no mutated gene)) was 16 µg/mL and the MIC (S. aureus; S. aureus MW2 serial passage culture SP2-1 (no mutated gene)) was 16 µg/mL.

Compound C[C@@H]1[C@H](O)[C@@H](C)/C=C/C=C/C=C/C=C/C=C/C=C/C=C/[C@H](O[C@@H]2O[C@H](C)[C@@H](O)[C@H](N)[C@@H]2O)C[C@@H]2O[C@](O)(C[C@@H](O)C[C@@H](O)[C@H](O)CC[C@@H](O)C[C@@H](O)CC(=O)O[C@H]1C)C[C@H](O)[C@H]2C(=O)O [Amphotericin B] has an MIC (C. neoformans; [2]) of 0.125 µg/mL (≈ 0.135 µM), an MIC (C. neoformans; [3]) of 0.125 µg/mL (≈ 0.135 µM) and an MIC (C. neoformans; [4]) of 0.125 µg/mL (≈ 0.135 µM). It also gave an MIC (C. neoformans; [5]) of 0.125 µg/mL (≈ 0.135 µM), an MIC (C. neoformans; [6]) of 0.125 µg/mL (≈ 0.135 µM) and an MIC (C. neoformans; [7]) of 0.125 µg/mL (≈ 0.135 µM). It also gave an MIC (C. neoformans; [8]) of 0.125 µg/mL (≈ 0.135 µM), an MIC (C. neoformans; [9]) of 0.125 µg/mL (≈ 0.135 µM) and an MIC (C. neoformans; [10]) of 0.125 µg/mL (≈ 0.135 µM). It also gave an MIC (C. neoformans; [11]) of 0.125 µg/mL (≈ 0.135 µM), an MIC (C. neoformans; [12]) of under 0.0625 µg/mL and an MIC (Candida tropicalis; [13]) of 1 µg/mL (≈ 1.08 µM). The MIC (Candida tropicalis; [14]) was 0.5 µg/mL (≈ 0.541 µM), the MIC (Candida tropicalis; [15]) was 0.125 µg/mL (≈ 0.135 µM) and the MIC (Candida tropicalis; [16]) was 0.5 µg/mL (≈ 0.541 µM). It also gave an MIC (Candida glabrata; [17]) of 1 µg/mL (≈ 1.08 µM), an MIC (Candida glabrata; [18]) of 0.5 µg/mL (≈ 0.541 µM) and an MIC (Candida glabrata; [19]) of 0.5 µg/mL (≈ 0.541 µM). It also gave an MIC (Candida glabrata; [20]) of 1 µg/mL (≈ 1.08 µM), an MIC (Candida glabrata; [21]) of 1 µg/mL (≈ 1.08 µM) and an MIC (Candida glabrata; [22]) of 0.5 µg/mL (≈ 0.541 µM). The MIC (Candida glabrata; [23]) was 0.5 µg/mL (≈ 0.541 µM), the MIC (Candida glabrata; [24]) was 1 µg/mL (≈ 1.08 µM) and the MIC (Candida glabrata; [25]) was 0.5 µg/mL (≈ 0.541 µM). The MIC (Candida glabrata; [26]) was 0.5 µg/mL (≈ 0.541 µM), the MIC (Candida glabrata; [27]) was 0.5 µg/mL (≈ 0.541 µM) and the MIC (Candida glabrata; [28]) was 1 µg/mL (≈ 1.08 µM). It also gave an MIC (Candida glabrata; [29]) of 0.5 µg/mL (≈ 0.541 µM), an MIC (Candida glabrata; [30]) of 1 µg/mL (≈ 1.08 µM) and an MIC (Candida glabrata; [31]) of 1 µg/mL (≈ 1.08 µM). It also gave an MIC (Candida glabrata; [32]) of 0.5 µg/mL (≈ 0.541 µM).

In the case of O=C(N[C@H](CO)[C@H](O)c1ccc([N+](=O)[O-])cc1)C(Cl)Cl [chloramphenicol], the MIC (E. faecium; Enterococcus faecium clinical isolate C68 (Table 6)) is reported as 16 µg/mL (≈ 49.5 µM), the MIC (E. faecium; Enterococcus faecium clinical isolate D14 (Table 6)) is reported as 8 µg/mL (≈ 24.8 µM) and the MIC (E. faecium; Enterococcus faecium clinical isolate D24 (Table 6)) is reported as 4 µg/mL (≈ 12.4 µM). For the same compound, the MIC (E. faecium; Enterococcus faecium clinical isolate D25 (Table 6)) was 8 µg/mL (≈ 24.8 µM), the MIC (E. faecium; Enterococcus faecium clinical isolate D29 (Table 6)) was 64 µg/mL (≈ 198 µM) and the MIC (E. faecium; Enterococcus faecium clinical isolate W312 (Table 6)) was 8 µg/mL (≈ 24.8 µM). It also gave an MIC (E. faecium; Enterococcus faecium clinical isolate WC176 (Table 6)) of 16 µg/mL (≈ 49.5 µM).

OC(Cn1cncn1)(Cn1cncn1)c1ccc(F)cc1F [Fluconazole] was tested, and the MIC (C. neoformans; [2]) was 8 µg/mL (≈ 26.1 µM), the MIC (C. neoformans; [3]) was 64 µg/mL (≈ 209 µM) and the MIC (C. neoformans; [4]) was 8 µg/mL (≈ 26.1 µM). The MIC (C. neoformans; [5]) was 64 µg/mL (≈ 209 µM), the MIC (C. neoformans; [6]) was over 64 µg/mL and the MIC (C. neoformans; [7]) was 8 µg/mL (≈ 26.1 µM). The MIC (C. neoformans; [8]) was 8 µg/mL (≈ 26.1 µM), the MIC (C. neoformans; [9]) was 4 µg/mL (≈ 13.1 µM) and the MIC (C. neoformans; [10]) was over 64 µg/mL. It also gave an MIC (C. neoformans; [11]) of 16 µg/mL (≈ 52.2 µM), an MIC (C. neoformans; [12]) of 64 µg/mL (≈ 209 µM) and an MIC (Candida tropicalis; [13]) of 8 µg/mL (≈ 26.1 µM). It also gave an MIC (Candida tropicalis; [14]) of 0.5 µg/mL (≈ 1.63 µM), an MIC (Candida tropicalis; [15]) of 1 µg/mL (≈ 3.27 µM) and an MIC (Candida tropicalis; [16]) of 2 µg/mL (≈ 6.53 µM). The MIC (Candida glabrata; [17]) was 8 µg/mL (≈ 26.1 µM), the MIC (Candida glabrata; [18]) was 2 µg/mL (≈ 6.53 µM) and the MIC (Candida glabrata; [19]) was 2 µg/mL (≈ 6.53 µM). It also gave an MIC (Candida glabrata; [20]) of 2 µg/mL (≈ 6.53 µM), an MIC (Candida glabrata; [21]) of 1 µg/mL (≈ 3.27 µM) and an MIC (Candida glabrata; [22]) of 0.5 µg/mL (≈ 1.63 µM). It also gave an MIC (Candida glabrata; [23]) of 0.5 µg/mL (≈ 1.63 µM), an MIC (Candida glabrata; [24]) of 8 µg/mL (≈ 26.1 µM) and an MIC (Candida glabrata; [25]) of 1 µg/mL (≈ 3.27 µM). The MIC (Candida glabrata; [26]) was 2 µg/mL (≈ 6.53 µM), the MIC (Candida glabrata; [27]) was 1 µg/mL (≈ 3.27 µM) and the MIC (Candida glabrata; [28]) was 2 µg/mL (≈ 6.53 µM). For the same compound, the MIC (Candida glabrata; [29]) was 2 µg/mL (≈ 6.53 µM), the MIC (Candida glabrata; [30]) was 4 µg/mL (≈ 13.1 µM) and the MIC (Candida glabrata; [31]) was 2 µg/mL (≈ 6.53 µM). It also gave an MIC (Candida glabrata; [32]) of 2 µg/mL (≈ 6.53 µM).
